Laboratory results taken from patent US7553979B2, “HSP90-inhibiting zearalanol compounds and methods of producing and using same” (Conforma Therapeutics Corporation, priority 2001, dated 2009).

Tested on: HER2
Experiment: HER2 inhibition assay (Her-2 degradation by flow cytometry in MCF-7 cells, as manifestation of HSP90 inhibition)
Format: cell-based
Settings: HER2 degradation, commercially acquired compounds (Sigma Aldrich), Table I, read-out: HER2 IC50
Protocol: MCF-7 cells are seeded in 24 well plates at a density of approximately 30,000 cells/well and allowed to grow for 16 hours in DMEM supplemented with 10% FBS. Drug (a compound as specified in Table I) is then added at a concentration range of 100 μM to 0.01 uM. Cells are incubated for an additional […]. Drug treated cells and untreated control cells are trypsinized, and incubated at room temperature for 15 minutes with anti Her-2 neu Ab conjugated with phycoerythrin (Becton Dickinson, San Jose Calif.; Cat no. 340552) at a concentration of 0.25 ug/ml, or non-specific control IgGl conjugated with phycoerytirin (Becton Dickinson, San Jose Calif.; Cat no. 340761). Samples were analyzed using a FACS Calibur flow cytometer (Becton Dickinson) equipped with Argon-ion laser that which emits 15 mW of 488 nm light for excitation of the phycoerythrin fluorochrome. 10,000 events were collected per sample. A fluorescence histogram was generated and the mean fluorescence intensity (mfi) of each sample was determined using Cellquest software. The background was defined as the mfi generated from cells incubated with control IgG, and was subtracted from each sample stained with the HER-2/neu Ab. Percent degradation of Her-2 was calculated as follows: % Her-2 degradation=(mfi HER-2 sample)/(mfi HER-2 untreated cells)×100
Compounds of the following formula (constituents as described in Table I) were acquired from Sigma Aldrich (Milwaukee, Wis.) and evaluated for HSP90 inhibition as manifested by HER2 degradation.
The following compounds were synthesized and evaluated for Her 2 degradation, with the results reflected in Table 3.

SMILES | IC50 [µM]
C[C@H]1CCCC(=O)CCCCCc2cc(O)cc(O)c2C(=O)O1 [1 (zearalanone), zearalanone, reference compound] | 13
C[C@H]1CCCC(=O)CCC/C=C/c2cc(O)cc(O)c2C(=O)O1 [2 (zearalenone), zearalenone, reference compound] | 7
C[C@H]1CCC[C@H](O)CCCCCc2cc(O)cc(O)c2C(=O)O1 [3 (α-zearalanol), α-zearalanol, reference compound] | 30
C[C@H]1CCC[C@@H](O)CCCCCc2cc(O)cc(O)c2C(=O)O1 [4 (β-zearalanol), β-zearalanol, reference compound] | 4
C[C@H]1CCC[C@H](O)CCC/C=C/c2cc(O)cc(O)c2C(=O)O1 [5 (α-zearalenol), α-zearalenol, reference compound] | 40
C[C@H]1CCC[C@@H](O)CCC/C=C/c2cc(O)cc(O)c2C(=O)O1 [6 (β-zearalenol), β-zearalenol, reference compound] | 1

Same assay, conditions: synthesized compounds, Table 3, read-out: IC50 (Her 2 degradation)

SMILES | IC50 [µM]
COc1cc(O)c2c(c1)OCCCCC(O)C(O)CCCCOC2=O (stereo not shown) [Example 1] | 30
COc1cc2c(c(OC(C)=O)c1)C(=O)OCCCCC=CCCCCO2 [Example 2.1, 1-acetoxy-3-methoxy-6,7,8,9,12,13,14,15-octahydro-5,16-dioxa-benzocyclopentadecen-17-one] | 10
COc1cc(OC(C)=O)c2c(c1C(C)=O)OCCCCC=CCCCCOC2=O [Example 2.2, 1-acetoxy-3-methoxy-4-acetyl-6,7,8,9,12,13,14,15-octahydro-5,16-dioxa-benzocyclopentadecen-17-one] | 40
COc1cc(O)c2c(c1)OCCCCC(=O)CCCCCOC2=O [Example 3.1, 1-hydroxy-3-methoxy-6,7,8,9,12,13,14,15-octahydro-11H-5,16-dioxa-benzocyclopentadecene-10,17-dione] | 30
COc1cc(O)c2c(c1)OCCCCCC(=O)CCCCOC2=O [Example 3.2, 1-Hydroxy-3-methoxy-6,7,8,9,12,13,14,15-octahydro-11H-5,16-dioxa-benzocyclopentadecene-11,17-dione] | 16
COc1cc(O)c2c(c1)OCCCC(O)C(O)CCCOC2=O (stereo not shown) [Example 4, 1,9,10-Trihydroxy-3-methoxy-6,7,8,9,10,11,12,13-octahydro-5,14-dioxa-benzocyclotridecen-15-one] | 12
COc1cc2c(c(OC(C)=O)c1)C(=O)OCCC/C=C\CCCO2 [Example 5.1, (9Z)-1-acetoxy-3-methoxy-6,7,8,11,12,13-hexahydro-5,14-dioxa-benzocyclotridecen-15-one] | 13
COc1cc2c(c(OC(C)=O)c1)C(=O)OCCC/C=C/CCCO2 [Example 5.2, (9E)-1-acetoxy-3-methoxy-6,7,8,11,12,13-hexahydro-5,14-dioxa-benzocyclotridecen-15-one] | 15
COc1cc2c(c(OC)c1)C(=O)OC(C)CCC(=O)CCC/C=C/2 (stereo not shown) [Example 6, 2,4-dimethoxy-7-methyl-8,9,12,13-tetrahydro-7H,11H-6-oxa-benzocyclotridecene-5,10-dione] | 90
COc1cc(O)c2c(c1)/C=C/CCCC(=O)CCC(C)OC2=O (stereo not shown) [Example 7, 4-hydroxy-2-methoxy-7-methyl-8,9,12,13-tetrahydro-7H,11H-6-oxa-benzocyclotridecene-5,10-dione] | 60
